{
  "source": "patent US7846655B2",
  "about": "“Compositions and methods for detecting a non plus-stranded RNA virus” (priority 2003, dated 2010)",
  "key": {"influenza A": {"test_system": "influenza A", "assay_type": "cell-based", "details": "FluA, 24 hours, control 189 ± 012"}, "influenza B": {"test_system": "influenza B", "assay_type": "cell-based", "details": "FluB, 24 hours, control 455 ± 022"}, "adenovirus": {"test_system": "adenovirus", "assay_type": "cell-based", "details": "Adeno, 24 hours, control 863 ± 100"}, "RSV": {"test_system": "RSV", "assay_type": "cell-based", "details": "24 hours, control 116 ± 012"}, "parainfluenza 1": {"test_system": "parainfluenza 1", "assay_type": "cell-based", "details": "Para1, 24 hours, control 245 ± 018"}, "parainfluenza 2": {"test_system": "parainfluenza 2", "assay_type": "cell-based", "details": "Para2, 24 hours, control 243 ± 012"}, "parainfluenza 3": {"test_system": "parainfluenza 3", "assay_type": "cell-based", "details": "Para3, 24 hours, control 142 ± 014"}, "human coronavirus 229E": {"test_system": "human coronavirus 229E", "experiment": "Replication of human coronavirus 229E (inventors' data, E64)", "assay_type": "cell-based", "details": "no conditions given"}, "SARS-coronavirus": {"test_system": "SARS-coronavirus", "details": "Yount et al. PNAS 100:12995-13000 (2003); cited from earlier work"}, "[1]": {"details": "Glycycrrhizin 0.152 micrograms/ml"}, "[2]": {"details": "Glycycrrhizin 1.216 micrograms/ml"}, "[3]": {"details": "Glycycrrhizin 6.08 micrograms/ml"}},
  "note": "Like-named read-outs stand apart in the source and are kept apart here.",
  "data": [
    {"compound": "CC(C)C[C@H](NC(=O)[C@H]1O[C@@H]1C(=O)O)C(=O)NCCCCN=C(N)N", "note": "(relative stereo) [E64, trans-Epoxysuccinyl-L-leucylamido-(4-guanidino)butane]", "values": [
      {"measurement": "Number of Infected Foci In R-Mix Cell Cultures", "setting": "influenza A; E64 0.5 micrograms/ml", "result": 174},
      {"measurement": "Number of Infected Foci In R-Mix Cell Cultures", "setting": "influenza A; E64 5 micrograms/ml", "result": 179},
      {"measurement": "Number of Infected Foci In R-Mix Cell Cultures", "setting": "influenza A; E64 10 micrograms/ml", "result": 176},
      {"measurement": "Number of Infected Foci In R-Mix Cell Cultures", "setting": "influenza B; E64 0.5 micrograms/ml", "result": 398},
      {"measurement": "Number of Infected Foci In R-Mix Cell Cultures", "setting": "influenza B; E64 5 micrograms/ml", "result": 328},
      {"measurement": "Number of Infected Foci In R-Mix Cell Cultures", "setting": "influenza B; E64 10 micrograms/ml", "result": 323},
      {"measurement": "Number of Infected Foci In R-Mix Cell Cultures", "setting": "adenovirus; E64 0.5 micrograms/ml", "result": 904},
      {"measurement": "Number of Infected Foci In R-Mix Cell Cultures", "setting": "adenovirus; E64 5 micrograms/ml", "result": 868},
      {"measurement": "Number of Infected Foci In R-Mix Cell Cultures", "setting": "adenovirus; E64 10 micrograms/ml", "result": 865},
      {"measurement": "Number of Infected Foci In R-Mix Cell Cultures", "setting": "RSV; E64 0.5 micrograms/ml", "result": 107},
      {"measurement": "Number of Infected Foci In R-Mix Cell Cultures", "setting": "RSV; E64 5 micrograms/ml", "result": 115},
      {"measurement": "Number of Infected Foci In R-Mix Cell Cultures", "setting": "RSV; E64 10 micrograms/ml", "result": 103},
      {"measurement": "Number of Infected Foci In R-Mix Cell Cultures", "setting": "parainfluenza 1; E64 0.5 micrograms/ml", "result": 251},
      {"measurement": "Number of Infected Foci In R-Mix Cell Cultures", "setting": "parainfluenza 1; E64 5 micrograms/ml", "result": 243},
      {"measurement": "Number of Infected Foci In R-Mix Cell Cultures", "setting": "parainfluenza 1; E64 10 micrograms/ml", "result": 207},
      {"measurement": "Number of Infected Foci In R-Mix Cell Cultures", "setting": "parainfluenza 2; E64 0.5 micrograms/ml", "result": 223},
      {"measurement": "Number of Infected Foci In R-Mix Cell Cultures", "setting": "parainfluenza 2; E64 5 micrograms/ml", "result": 221},
      {"measurement": "Number of Infected Foci In R-Mix Cell Cultures", "setting": "parainfluenza 2; E64 10 micrograms/ml", "result": 205},
      {"measurement": "Number of Infected Foci In R-Mix Cell Cultures", "setting": "parainfluenza 3; E64 0.5 micrograms/ml", "result": 127},
      {"measurement": "Number of Infected Foci In R-Mix Cell Cultures", "setting": "parainfluenza 3; E64 5 micrograms/ml", "result": 99},
      {"measurement": "replication of human coronavirus 229E", "setting": "human coronavirus 229E", "result": "inhibition in replication"}
    ]},
    {"compound": "CCOC(=O)[C@H]1O[C@@H]1C(=O)N[C@@H](CC(C)C)C(=O)NCCC(C)C", "note": "[(2S,3S)transepoxysuccinyl-L-leucylamido-3-methylbutane ethyl ester]", "values": [
      {"measurement": "replication of SARS-coronavirus", "setting": "SARS-coronavirus", "result": "inhibition in replication"}
    ]},
    {"compound": "CCCCC[C@H](CC(=O)NO)C(=O)N[C@H](C(=O)N1CCC[C@H]1CO)C(C)C", "note": "[Actinonin]", "values": [
      {"measurement": "Number of Infected Foci In R-Mix Cell Cultures", "setting": "influenza A; Actinonin 10 micrograms/ml", "result": 171},
      {"measurement": "Number of Infected Foci In R-Mix Cell Cultures", "setting": "influenza A; Actinonin 20 micrograms/ml", "result": 122},
      {"measurement": "Number of Infected Foci In R-Mix Cell Cultures", "setting": "influenza A; Actinonin 40 micrograms/ml", "result": 118},
      {"measurement": "Number of Infected Foci In R-Mix Cell Cultures", "setting": "influenza B; Actinonin 10 micrograms/ml", "result": 317},
      {"measurement": "Number of Infected Foci In R-Mix Cell Cultures", "setting": "influenza B; Actinonin 20 micrograms/ml", "result": 260},
      {"measurement": "Number of Infected Foci In R-Mix Cell Cultures", "setting": "influenza B; Actinonin 40 micrograms/ml", "result": 190},
      {"measurement": "Number of Infected Foci In R-Mix Cell Cultures", "setting": "adenovirus; Actinonin 10 micrograms/ml", "result": 781},
      {"measurement": "Number of Infected Foci In R-Mix Cell Cultures", "setting": "adenovirus; Actinonin 20 micrograms/ml", "result": 383},
      {"measurement": "Number of Infected Foci In R-Mix Cell Cultures", "setting": "adenovirus; Actinonin 40 micrograms/ml", "result": 147},
      {"measurement": "Number of Infected Foci In R-Mix Cell Cultures", "setting": "RSV; Actinonin 10 micrograms/ml", "result": 103},
      {"measurement": "Number of Infected Foci In R-Mix Cell Cultures", "setting": "RSV; Actinonin 20 micrograms/ml", "result": 64},
      {"measurement": "Number of Infected Foci In R-Mix Cell Cultures", "setting": "RSV; Actinonin 40 micrograms/ml", "result": 41},
      {"measurement": "Number of Infected Foci In R-Mix Cell Cultures", "setting": "parainfluenza 1; Actinonin 10 micrograms/ml", "result": 222},
      {"measurement": "Number of Infected Foci In R-Mix Cell Cultures", "setting": "parainfluenza 1; Actinonin 20 micrograms/ml", "result": 191},
      {"measurement": "Number of Infected Foci In R-Mix Cell Cultures", "setting": "parainfluenza 1; Actinonin 40 micrograms/ml", "result": 160},
      {"measurement": "Number of Infected Foci In R-Mix Cell Cultures", "setting": "parainfluenza 2; Actinonin 10 micrograms/ml", "result": 220},
      {"measurement": "Number of Infected Foci In R-Mix Cell Cultures", "setting": "parainfluenza 2; Actinonin 20 micrograms/ml", "result": 196},
      {"measurement": "Number of Infected Foci In R-Mix Cell Cultures", "setting": "parainfluenza 2; Actinonin 40 micrograms/ml", "result": 151},
      {"measurement": "Number of Infected Foci In R-Mix Cell Cultures", "setting": "parainfluenza 3; Actinonin 10 micrograms/ml", "result": 115},
      {"measurement": "Number of Infected Foci In R-Mix Cell Cultures", "setting": "parainfluenza 3; Actinonin 20 micrograms/ml", "result": 104},
      {"measurement": "Number of Infected Foci In R-Mix Cell Cultures", "setting": "parainfluenza 3; Actinonin 40 micrograms/ml", "result": 75}
    ]},
    {"compound": "CC1(C)[C@@H](O[C@H]2O[C@H](C(=O)O)[C@@H](O)[C@H](O)[C@H]2O[C@@H]2O[C@H](C(=O)O)[C@@H](O)[C@H](O)[C@H]2O)CC[C@]2(C)[C@H]3C(=O)C=C4[C@@H]5C[C@@](C)(C(=O)O)CC[C@]5(C)CC[C@@]4(C)[C@]3(C)CC[C@@H]12", "note": "[Glycycrrhizin, Glycyrrhizin]", "values": [
      {"measurement": "Number of Infected Foci In R-Mix Cell Cultures", "setting": "influenza A; [1]", "result": 218},
      {"measurement": "Number of Infected Foci In R-Mix Cell Cultures", "setting": "influenza A; [2]", "result": 175},
      {"measurement": "Number of Infected Foci In R-Mix Cell Cultures", "setting": "influenza A; [3]", "result": 163},
      {"measurement": "Number of Infected Foci In R-Mix Cell Cultures", "setting": "influenza B; [1]", "result": 426},
      {"measurement": "Number of Infected Foci In R-Mix Cell Cultures", "setting": "influenza B; [2]", "result": 402},
      {"measurement": "Number of Infected Foci In R-Mix Cell Cultures", "setting": "influenza B; [3]", "result": 273},
      {"measurement": "Number of Infected Foci In R-Mix Cell Cultures", "setting": "adenovirus; [1]", "result": 766},
      {"measurement": "Number of Infected Foci In R-Mix Cell Cultures", "setting": "adenovirus; [2]", "result": 938},
      {"measurement": "Number of Infected Foci In R-Mix Cell Cultures", "setting": "adenovirus; [3]", "result": 1061},
      {"measurement": "Number of Infected Foci In R-Mix Cell Cultures", "setting": "RSV; [1]", "result": 130},
      {"measurement": "Number of Infected Foci In R-Mix Cell Cultures", "setting": "RSV; [2]", "result": 103},
      {"measurement": "Number of Infected Foci In R-Mix Cell Cultures", "setting": "RSV; [3]", "result": 53},
      {"measurement": "Number of Infected Foci In R-Mix Cell Cultures", "setting": "parainfluenza 1; [1]", "result": 268},
      {"measurement": "Number of Infected Foci In R-Mix Cell Cultures", "setting": "parainfluenza 1; [2]", "result": 233},
      {"measurement": "Number of Infected Foci In R-Mix Cell Cultures", "setting": "parainfluenza 1; [3]", "result": 295},
      {"measurement": "Number of Infected Foci In R-Mix Cell Cultures", "setting": "parainfluenza 2; [1]", "result": 265},
      {"measurement": "Number of Infected Foci In R-Mix Cell Cultures", "setting": "parainfluenza 2; [2]", "result": 257},
      {"measurement": "Number of Infected Foci In R-Mix Cell Cultures", "setting": "parainfluenza 2; [3]", "result": 281},
      {"measurement": "Number of Infected Foci In R-Mix Cell Cultures", "setting": "parainfluenza 3; [1]", "result": 138},
      {"measurement": "Number of Infected Foci In R-Mix Cell Cultures", "setting": "parainfluenza 3; [2]", "result": 149},
      {"measurement": "Number of Infected Foci In R-Mix Cell Cultures", "setting": "parainfluenza 3; [3]", "result": 138}
    ]}
  ]
}
